Read-outs that look alike come from different tables or passages of the source.
Assays:
Pgp = experiment: Drug transport assay through polarized TC7 monolayers; format: in vitro ADME; settings: human, Caco-2, with verapamil (100 μM); TC7 monolayers, Pgp inhibitor verapamil (100 μM); read-out: B-A permeability with verapamil
Experimental: (§1) Drug transport assays. Assays were performed at Cerep Inc. (Redmond, Wash.), following protocols outlined in the company's web-site (http://www.cerep.fr).
(§2) Drug transport assays Transport assays were conducted at Cerep Inc. (Redmond, Wash.). Cellular permeability was determined in the apical (A) to basal (B) and the B to A direction in the presence of 10 μM compound in Hanks' buffered salt solution containing 1% dimethylsulfoxide (DMSO). Efflux ratios were calculated as the ratio of B-A to A-B permeabilities.

[1] = as above; format: in vitro ADME; settings: human
Experimental: as §1, §2

[2] = system: acetic acid-induced writhing; experiment: Acetic acid-induced writhing; format: in vivo, mice
Experimental: Behavioral tests. We measured nocifensive responses elicited by i.p. injection of acetic acid in male Swiss and C57B1/6 (wild-type or FAAH-deficient) mice^40, intraplantar injection of carrageenan in male Swiss mice^20, intraplantar injection of formalin in male Sprague-Dawley rats^41, and sciatic nerve ligation in male Swiss mice^39.
Behavioral tests Acetic acid-induced writhing was measured in Swiss mice or C57B1/6 mice (wild-type and FAAH-deficient), as described^40 with minor modifications. Briefly, the mice were acclimated to the experimental room for 2 h. Each animal was injected with acetic acid (150 μL, 0.6% in saline) and placed into a glass cylinder. Abdominal stretches (extension of body and hind limbs) were counted for 20 min, starting 5 min after acetic acid injection. […] Behavior was scored by an observer blinded to the treatment conditions. Formalin-induced nociception was assessed in Sprague-Dawley rats, as described^41. The rats were singly housed and kept in a shared holding room under a 12:12 h light:dark cycle. […] Immediately after formalin injection, the rats were returned to the observation container and nocifensive behavior was recorded for 60 min with a video camera. Recordings were analyzed by observers blinded to treatment conditions. Nocifensive behavior was measured continuously for 60 min^41. […] Each 5-min bin was analyzed for time spent (1) lifting and (2) licking or biting the injected paw. Nocifensive behavior was analyzed using the composite pain score weighted scores technique (CPS-WST1,2) calculated for the entire time of observation (0-60 min) and, separately, for the first (0-10 min) and second phase (10-60 min) of the behavioral response^46. The area under the curve (AUC) corresponding to CPS-WST1,2 was calculated using the trapezoidal rule. […] Paw volumes were measured using a plethysmometer (Ugo Basile, Milan, Italy). […] Mechanical hyperalgesia was assessed by measuring the latency(s) to withdraw the paw from a constant mechanical pressure exerted onto its dorsal surface. […]

[3] = Tissue distribution of URB937 by LC/MS; format: in vivo; settings: mice, 1 mg-kg^-1, i.p.
Experimental: Tissue analyses. We performed tissue extractions and liquid chromatography/mass spectrometry analyses of endocannabinoids as described^38. Similar procedures were utilized for the tissue extraction and LC/MS quantification of URB937, as detailed further below.
Tissue extractions Mice were sacrificed with isoflurane and tissues were collected and immediately frozen in liquid nitrogen. Frozen tissues were weighed and homogenized in methanol (1 mL) containing [^2H4]-anandamide, [^2H4]-PEA, [^2H8]-2-AG, and N-cyclohexyl biphenyl-3-ylacetamide as internal standards. Analytes were extracted with chloroform (2 vol) and washed with water (1 vol). Organic phases were collected and dried under nitrogen. The non-fractionated organic extract was used for quantification of URB937. For other analyses the organic extract was fractionated by open-bed silica gel column chromatography, as described^43. Briefly, the extract was dissolved in chloroform and loaded onto small glass columns packed with Silica Gel G (60˜A 230-400 Mesh ASTM; Whatman, Clifton, N.J.). […]
Mobile phase A consisted of methanol containing 0.25% acetic acid, 5 mM ammonium acetate; mobile phase B consisted of water containing 0.25% acetic acid, 5 mM ammonium acetate. […] Na^+ adducts ([M+Na^+]) of analytes and internal standards were monitored in the selective ion-monitoring mode. Limit of quantification was 0.4 pmol.

FAAH = FAAH (Mus musculus (Mouse), UniProt O08914); experiment: Tissue levels of anandamide, PEA and 2-AG by LC/MS; format: in vivo; settings: mice, 1 mg-kg^-1, i.p.
FAAH, sequence (O08914 whole entry): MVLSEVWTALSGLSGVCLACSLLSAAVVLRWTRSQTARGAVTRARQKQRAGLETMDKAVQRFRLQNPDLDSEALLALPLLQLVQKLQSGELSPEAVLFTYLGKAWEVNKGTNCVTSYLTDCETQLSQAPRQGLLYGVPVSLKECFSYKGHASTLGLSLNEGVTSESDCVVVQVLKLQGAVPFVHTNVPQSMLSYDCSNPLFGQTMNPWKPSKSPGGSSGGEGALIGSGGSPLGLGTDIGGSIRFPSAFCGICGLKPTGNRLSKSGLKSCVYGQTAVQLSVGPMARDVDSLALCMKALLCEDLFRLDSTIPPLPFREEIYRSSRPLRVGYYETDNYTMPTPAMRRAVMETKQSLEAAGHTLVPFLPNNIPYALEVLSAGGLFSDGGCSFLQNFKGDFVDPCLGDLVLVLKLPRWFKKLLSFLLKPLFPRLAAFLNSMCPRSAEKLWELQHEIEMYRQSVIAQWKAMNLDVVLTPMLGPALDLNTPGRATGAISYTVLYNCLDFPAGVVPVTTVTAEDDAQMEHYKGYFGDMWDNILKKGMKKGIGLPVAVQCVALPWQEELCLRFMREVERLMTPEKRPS
Experimental: Tissue extractions Mice were sacrificed with isoflurane and tissues were collected and immediately frozen in liquid nitrogen. Frozen tissues were weighed and homogenized in methanol (1 mL) containing [^2H4]-anandamide, [^2H4]-PEA, [^2H8]-2-AG, and N-cyclohexyl biphenyl-3-ylacetamide as internal standards. Analytes were extracted with chloroform (2 vol) and washed with water (1 vol). Organic phases were collected and dried under nitrogen. […] For other analyses the organic extract was fractionated by open-bed silica gel column chromatography, as described^43. Briefly, the extract was dissolved in chloroform and loaded onto small glass columns packed with Silica Gel G (60˜A 230-400 Mesh ASTM; Whatman, Clifton, N.J.). Anandamide, PEA and 2-AG were eluted with chloroform/methanol (9:1, vol/vol).
Mobile phase A consisted of methanol containing 0.25% acetic acid, 5 mM ammonium acetate; mobile phase B consisted of water containing 0.25% acetic acid, 5 mM ammonium acetate. […] Column temperature was kept at 40° C. […] Limit of quantification was 0.4 pmol.

Work on `NC(=O)c1cccc(-c2cc(OC(=O)NC3CCCCC3)ccc2O)c1` [Compound 1b, cyclohexylcarbamic acid 3′-carbamoyl-6-hydroxybiphenyl-3-yl ester] yielded a Papp B→A at 10 μM (Pgp) of 32.2 ×10⁻⁶ cm/s, a recovery at 10 μM ([1]; Caco-2, TC7 monolayers, 10 μM compound, read-out: % recovery A-B) of 83% and a recovery at 10 μM ([1]; Caco-2, TC7 monolayers, 10 μM compound, read-out: % recovery B-A) of 95%. It also gave a recovery at 10 μM ([1]; Caco-2, with verapamil 100 μM, TC7 monolayers, verapamil (100 μM), read-out: % recovery B-A with verapamil) of 94%, a Papp A→B at 10 μM ([1]; Caco-2, TC7 monolayers, 10 μM compound, mean of 2 independent experiments, read-out: permeability A-B) of 3.8 ×10⁻⁶ cm/s and a Papp B→A at 10 μM ([1]; Caco-2, TC7 monolayers, 10 μM compound, mean of 2 independent experiments, read-out: permeability B-A) of 37.1 ×10⁻⁶ cm/s. For the same compound, the “nocifensive behavior when administered alone” value ([2]; mice, 1 mg-kg^-1, without acetic acid) was “no detectable nocifensive behavior”, the “acetic acid-induced writhing ED50” value ([2]; mice, subcutaneous administration, 1 h before acetic acid) was 0.1 mg/kg and the “reduction of acetic acid-induced writhing in FAAH-deficient mice” value ([2]; mutant FAAH-deficient mice, 1 mg-kg^-1) was “absent”. The “URB937 level in brain tissue after systemic administration” value [3] was “undetectable”, the anandamide levels (FAAH) was “increased anandamide levels in the periphery, not in forebrain or hypothalamus” and the “tissue levels of 2-AG in vivo” value (FAAH) was “did not alter”.

Source: patent publication US9187413B2, “Peripherally restricted FAAH inhibitors” (The Regents of the University of California, priority 2010, dated 2015)
